Source: ChEMBL document CHEMBL1132573, “Novel antitumor 2-cyanoaziridine-1-carboxamides” (J Med Chem, 1999)

Tests used:
Format in all cases: functional, cell-based
A-375 = assay: Inhibition of cell growth in (A375) melan cell line; details: Homo sapiens
L1210 [1] = assay: Inhibition of cell growth in (L1210 leukemia) MDR cells determined by MTT assay; details: Mus musculus
L1210 [2] = assay: Inhibition of cell growth in drug sensitive L1210 leukemia cell line determined by MTT assay; details: Mus musculus
MCF7 [3] = assay: Inhibition of cell growth in (MCF7 breast) dox cell line; details: Homo sapiens
MCF7 [4] = assay: Inhibition of cell growth in (MCF7 breast) mitox cell line; details: Homo sapiens
MCF7 [5] = assay: Inhibition of cell growth in drug sensitive MCF-7 breast cell line; details: Homo sapiens
OVCAR-3 = assay: Inhibition of cell growth in (OVCAR-3) ovarian cell line; details: Homo sapiens
RPMI-8226 [6] = assay: Inhibition of cell growth in drug resistant 8226 myeloma cell line; details: Homo sapiens
RPMI-8226 [7] = assay: Inhibition of cell growth in drug sensitive 8226 myeloma cell line; details: Homo sapiens
A549 = assay: Inhibition of cell growth in (A-549) lung cell line; details: Homo sapiens
WiDr [8] = assay: Inhibition of cell growth in drug resistant WiDr colon cell line; details: Homo sapiens
WiDr [9] = assay: Inhibition of cell growth in drug sensitive WiDr colon cell line; details: Homo sapiens

N#CC1CN1C(N)=O (centres undefined)
IC50 (A-375): > 90 µM | IC50 (L1210 [1]): > 90 µM | IC50 (L1210 [2]): > 90 µM | IC50 (MCF7 [3]): > 54 µM | IC50 (MCF7 [4]): > 54 µM | IC50 (MCF7 [5]): > 54 µM | IC50 (OVCAR-3): > 90 µM

CC(C)(C)NC(=O)N1CC1C#N (centres undefined)
IC50 (RPMI-8226 [6]): 216 µM | IC50 (RPMI-8226 [7]): 120 µM | IC50 (A549): 180 µM | IC50 (A-375): 418 µM | IC50 (L1210 [1]): 457 µM | IC50 (L1210 [2]): 132 µM | IC50 (MCF7 [3]): 190 µM | IC50 (MCF7 [4]): 120 µM | IC50 (MCF7 [5]): > 300 µM | IC50 (OVCAR-3): 186 µM | IC50 (WiDr [8]): > 300 µM | IC50 (WiDr [9]): 180 µM

N#CC1CN1C(=O)Nc1ccc(S(N)(=O)=O)cc1 (centres undefined)
IC50 (RPMI-8226 [6]): > 38 µM | IC50 (RPMI-8226 [7]): > 38 µM | IC50 (A549): > 38 µM | IC50 (A-375): 188 µM | IC50 (L1210 [1]): > 38 µM | IC50 (L1210 [2]): > 38 µM | IC50 (MCF7 [3]): > 15 µM | IC50 (MCF7 [4]): > 15 µM | IC50 (MCF7 [5]): > 15 µM | IC50 (OVCAR-3): 188 µM | IC50 (WiDr [8]): > 38 µM | IC50 (WiDr [9]): > 38 µM

N#CC1CN1C(=O)Nc1ccc(Cl)cc1Cl (centres undefined)
IC50 (RPMI-8226 [6]): 9.4 µM | IC50 (RPMI-8226 [7]): 4.7 µM | IC50 (A549): 2.5 µM | IC50 (A-375): > 39 µM | IC50 (L1210 [1]): 33 µM | IC50 (L1210 [2]): 207 µM | IC50 (MCF7 [3]): 1.1 µM | IC50 (MCF7 [4]): 0.35 µM | IC50 (MCF7 [5]): 0.9 µM | IC50 (OVCAR-3): 35 µM | IC50 (WiDr [8]): 1.9 µM | IC50 (WiDr [9]): 2.2 µM

N#CC1CN1C(=O)Nc1ccc(Cl)c(Cl)c1 (centres undefined)
IC50 (RPMI-8226 [6]): 2.7 µM | IC50 (RPMI-8226 [7]): 1.1 µM | IC50 (A549): 7.5 µM | IC50 (A-375): 5.9 µM | IC50 (L1210 [1]): 7.2 µM | IC50 (L1210 [2]): 2.6 µM | IC50 (MCF7 [3]): 7.2 µM | IC50 (MCF7 [4]): 4.4 µM | IC50 (MCF7 [5]): 4.6 µM | IC50 (OVCAR-3): 5.6 µM | IC50 (WiDr [8]): 14 µM | IC50 (WiDr [9]): 7 µM

N#CC1CN1C(=O)NC1CCCCC1 (centres undefined)
IC50 (RPMI-8226 [6]): 98 µM | IC50 (RPMI-8226 [7]): 36 µM | IC50 (A549): 10 µM | IC50 (A-375): 35 µM | IC50 (L1210 [1]): 16 µM | IC50 (L1210 [2]): 7.4 µM | IC50 (MCF7 [3]): 8.9 µM | IC50 (MCF7 [4]): 9.8 µM | IC50 (MCF7 [5]): 13 µM | IC50 (OVCAR-3): 31 µM | IC50 (WiDr [8]): 12 µM | IC50 (WiDr [9]): 2.4 µM

CCCCNC(=O)N1CC1C#N (centres undefined)
IC50 (RPMI-8226 [6]): 17 µM | IC50 (RPMI-8226 [7]): 17 µM | IC50 (A549): 18 µM | IC50 (A-375): 15 µM | IC50 (L1210 [1]): 12 µM | IC50 (L1210 [2]): 12 µM | IC50 (MCF7 [3]): 6.7 µM | IC50 (MCF7 [4]): > 12 µM | IC50 (MCF7 [5]): > 12 µM | IC50 (OVCAR-3): 12 µM | IC50 (WiDr [8]): 18 µM | IC50 (WiDr [9]): 14 µM

CNC(=O)N1CC1C#N (centres undefined)
IC50 (RPMI-8226 [6]): 26 µM | IC50 (RPMI-8226 [7]): 26 µM | IC50 (A549): 22 µM | IC50 (A-375): 17 µM | IC50 (L1210 [1]): 21 µM | IC50 (L1210 [2]): 8.7 µM | IC50 (MCF7 [3]): 17 µM | IC50 (MCF7 [4]): 18 µM | IC50 (MCF7 [5]): 27 µM | IC50 (OVCAR-3): 14 µM | IC50 (WiDr [8]): 23 µM | IC50 (WiDr [9]): 21 µM

N#CC1CN1C(=O)Nc1ccc(C(F)(F)F)cc1 (centres undefined)
IC50 (RPMI-8226 [6]): 7.8 µM | IC50 (RPMI-8226 [7]): 8.2 µM | IC50 (A549): 4.3 µM | IC50 (A-375): 11.8 µM | IC50 (L1210 [1]): 7.1 µM | IC50 (L1210 [2]): 7.8 µM | IC50 (MCF7 [3]): 1.4 µM | IC50 (MCF7 [4]): 1.3 µM | IC50 (MCF7 [5]): 1.5 µM | IC50 (OVCAR-3): 5.9 µM | IC50 (WiDr [8]): 5.8 µM | IC50 (WiDr [9]): 1.3 µM

COC(=O)c1ccccc1NC(=O)N1CC1C#N (centres undefined)
IC50 (RPMI-8226 [6]): > 39 µM | IC50 (RPMI-8226 [7]): > 39 µM | IC50 (A549): > 41 µM | IC50 (A-375): > 39 µM | IC50 (L1210 [1]): > 39 µM | IC50 (L1210 [2]): > 39 µM | IC50 (MCF7 [3]): > 16 µM | IC50 (MCF7 [4]): > 16 µM | IC50 (MCF7 [5]): > 16 µM | IC50 (OVCAR-3): > 39 µM | IC50 (WiDr [8]): > 41 µM | IC50 (WiDr [9]): 40 µM

CC(=O)c1cccc(NC(=O)N2CC2C#N)c1 (centres undefined)
IC50 (RPMI-8226 [6]): 9.6 µM | IC50 (RPMI-8226 [7]): 8.7 µM | IC50 (A549): 5.6 µM | IC50 (A-375): 7.9 µM | IC50 (L1210 [1]): 7.9 µM | IC50 (L1210 [2]): 9.6 µM | IC50 (MCF7 [3]): 3.2 µM | IC50 (MCF7 [4]): 3.5 µM | IC50 (MCF7 [5]): 3.6 µM | IC50 (OVCAR-3): 10 µM | IC50 (WiDr [8]): 9 µM | IC50 (WiDr [9]): 3.3 µM

CCOC(=O)c1ccc(NC(=O)N2CC2C#N)cc1 (centres undefined)
IC50 (RPMI-8226 [6]): 3 µM | IC50 (RPMI-8226 [7]): 3 µM | IC50 (A549): 2.9 µM | IC50 (A-375): 5.8 µM | IC50 (L1210 [1]): 9.7 µM | IC50 (L1210 [2]): 9.7 µM | IC50 (MCF7 [3]): 2.1 µM | IC50 (MCF7 [4]): 3.3 µM | IC50 (MCF7 [5]): 2.3 µM | IC50 (OVCAR-3): 7.7 µM | IC50 (WiDr [8]): 4.2 µM | IC50 (WiDr [9]): 2.5 µM
